This passage reports IC50 results from US8492408B2, “Benzimidazole derivatives and their use for modulating the GABAA receptor complex” (Aniona APS, priority 2008, dated 2013).

This test addresses benzodiazepine modulatory unit of the GABAA receptor complex (3H-flunitrazepam binding, cerebral cortex membranes). In words: In vitro inhibition of 3H-flunitrazepam (3H-FNM) binding. Also noted: species or system rat. As to conditions: inhibition of specific 3H-FNM (1 nM) binding, cerebral cortex membranes from male Wistar rats, 40 min at 2° C. The procedure:
In Vitro Inhibition of ^3H-Flunitrazepam (^3H-FNM) Binding
The GABA recognition site and the benzodiazepine modulatory unit can selectively be labelled with ^3H-flunitrazepam.
Preparations are performed at 0-4° C. unless otherwise indicated. Cerebral cortex from male Wistar rats (150-200 g) is homogenised for 5-10 sec in 20 ml Tris-HCl (30 mM, pH 7.4) using an Ultra-Turrax homogeniser. The suspension is centrifuged at 27,000×g for 15 min and the pellet is washed three times with buffer (centrifuged at 27,000×g for 10 min). The washed pellet is homogenized in 20 ml of buffer and incubated on a water bath (37° C.) for 30 min to remove endogenous GABA and then centrifuged for 10 min at 27,000×g. The pellet is then homogenized in buffer and centrifuged for 10 min at 27,000×g. The final pellet is resuspended in 30 ml buffer and the preparation is frozen and stored at −20° C.
The membrane preparation is thawed and centrifuged at 2° C. for 10 min at 27,000×g. The pellet is washed twice with 20 ml 50 mM Tris-citrate, pH 7.1 using an Ultra-Turrax homogeniser and centrifuged for 10 min at 27,000×g. The final pellet is resuspended in 50 mM Tris-citrate, pH 7.1 (500 ml buffer per g of original tissue), and then used for binding assays. Aliquots of 0.5 ml tissue are added to 25 μl of test solution and 25 μl of ^3H-FNM (1 nM, final concentration), mixed and incubated for 40 min at 2° C. Non-specific binding is determined using Clonazepam (1 μM, final concentration). After incubation the samples are added 5 ml of ice-cold buffer and poured directly onto Whatman GF/C glass fibre filters under suction and immediately washed with 5 ml ice-cold buffer. The amount of radioactivity on the filters is determined by conventional liquid scintillation counting. Specific binding is total binding minus non-specific binding.
The test value will be given as IC50 (the concentration (μM) of the test substance which inhibits the specific binding of ^3H-FNM by 50%).
Co is specific binding in control assays, and
Cx is the specific binding in the test assay.
(The calculations assume normal mass-action kinetics).
Turning to `COc1ncccc1-c1cc(-n2cnc3cc(C(C)(C)O)ccc32)ccn1` [Compound 7a, 2-[1-(2′-Methoxy-[2,3′]bipyridinyl-4-yl)-1H-benzoimidazol-5-yl]-propan-2-ol], the IC50 (as a rule, the concentration that inhibits the measured activity by half) stood at 1.2 nM.

Compound `CC(C)(O)c1ccc2c(c1)ncn2-c1ccnc(-c2cccnc2Cl)c1` [Compound 7b, 2-[1-(2′-Chloro-[2,3′]bipyridinyl-4-yl)-1H-benzoimidazol-5-yl]-propan-2-ol] yielded an IC50 of 38 nM.

Turning to `CC(C)(O)c1ccc2c(c1)ncn2-c1ccnc(-c2ccncc2F)c1` [Compound 7c, 2-[1-(3′-Fluoro-[2,4′]bipyridinyl-4-yl)-1H-benzoimidazol-5-yl]-propan-2-ol], the IC50 came out at 7.5 nM.

For `CC(C)(O)c1ccc2c(c1)ncn2-c1ccnc(-c2ccncc2C#N)c1` [Compound 7d, 4-[5-(1-Hydroxy-1-methyl-ethyl)-benzoimidazol-1-yl]-[2,4′]bipyridinyl-3′-carbonitrile], the IC50 stood at 26 nM.
